According to patent publication US11292971B2, “Dissolution of hexamine in non-aqueous solvent” (ECOLAB USA INC., priority 2017, dated 2022):

Assays:
[1] = 20° C., cited from earlier work
[2] = Dissolution of hexamine in cinnamyl alcohol and glycerin: slurry left two days, clear supernatant analyzed for composition; assay type: physicochemical; conditions: about room temperature
Protocol: Slurries were prepared by mixing hexamine in cinnamyl alcohol or a mixture of cinnamyl alcohol and glycerin at about room temperature. The compositions were then allowed to sit undisturbed for two days and the clear supernatant decanted off and analyzed for composition. As the results below illustrate, clear stable solutions of hexamine in various ratios of glycerin and cinnamyl alcohol were obtained.

SMILES: C1N2CN3CN1CN(C2)C3 [Hexamine, 1,3,5,7-tetraazatricyclo[3.3.1.1^3,7]decane]
- solubility in acetone ([1]; acetone): 0.65 g
- solubility in benzene ([1]; benzene): 0.23 g
- solubility in chloroform ([1]; chloroform): 13.4 g
- solubility in ethanol ([1]; ethanol): 2.89 g
- solubility in ether ([1]; ether): 0.06 g
- solubility in methanol ([1]; methanol): 7.25 g
- solubility in petroleum ether ([1]; petroleum ether): near zero
- solubility in xylene ([1]; xylene): 0.14 g
- Hexamine in stable solution ([2]; cinnamyl alcohol 16, glycerin (<1% water) 76 weight %): 8 Weight %
- Hexamine in stable solution ([2]; cinnamyl alcohol 32, glycerin (<1% water) 63 weight %): 5 Weight %
- Hexamine in stable solution ([2]; cinnamyl alcohol 37, glycerin (<1% water) 55 weight %): 8 Weight %
- Hexamine in stable solution ([2]; cinnamyl alcohol 50, glycerin (<1% water) 43 weight %): 7 Weight %
- Hexamine in stable solution ([2]; cinnamyl alcohol 59, glycerin (<1% water) 34 weight %): 7 Weight %
- Hexamine in stable solution ([2]; cinnamyl alcohol 68, glycerin (<1% water) 22 weight %): 10 Weight %
- Hexamine in stable solution ([2]; cinnamyl alcohol 78, glycerin (<1% water) 11 weight %): 11 Weight %
- Hexamine in stable solution ([2]; cinnamyl alcohol 84, glycerin (<1% water) 6 weight %): 10 Weight %
- Hexamine in stable solution ([2]; cinnamyl alcohol 93, glycerin (<1% water) 0 weight %): 7 Weight %
